Laboratory results taken from the supplement of paper PMC11451515.

Test system: SEM cells
Test: cell viability relative to DMSO control; higher = less cytotoxic
Settings: 48 h
How it was run: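 Viability was expressed as a per-plate percentage of DMSO wells, with cell-free wells as background. Leukemia cells (NOMO1 or SEM at 500 cells/well, P12-Ichikawa at 1000 cells/well) were adapted for at least four passages in each medium and seeded in 1536-well plates (5 μl). Library compounds in DMSO were pin-dosed over an 11-point threefold series from 47 μM to 0.79 nM, and CellTiter-Glo One luminescence was read after 48 h at 37°C.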

[1] = HPLM + 10% dialyzed FBS, 0.000781 µM
[2] = HPLM + 10% dialyzed FBS, 0.00234 µM
[3] = HPLM + 10% dialyzed FBS, 0.00702 µM
[4] = HPLM + 10% dialyzed FBS, 0.0211 µM
[5] = HPLM + 10% dialyzed FBS, 0.0632 µM
[6] = HPLM + 10% dialyzed FBS, 0.19 µM
[7] = HPLM + 10% dialyzed FBS, 0.569 µM
[8] = HPLM + 10% dialyzed FBS, 1.71 µM
[9] = HPLM + 10% dialyzed FBS, 5.12 µM
[10] = HPLM + 10% dialyzed FBS, 15.4 µM
[11] = HPLM + 10% dialyzed FBS, 46.1 µM
[12] = RPMI 5 mM glucose + 10% FBS, 0.000781 µM
[13] = RPMI 5 mM glucose + 10% FBS, 0.00234 µM
[14] = RPMI 5 mM glucose + 10% FBS, 0.00702 µM
[15] = RPMI 5 mM glucose + 10% FBS, 0.0211 µM
[16] = RPMI 5 mM glucose + 10% FBS, 0.0632 µM
[17] = RPMI 5 mM glucose + 10% FBS, 0.19 µM
[18] = RPMI 5 mM glucose + 10% FBS, 0.569 µM
[19] = RPMI 5 mM glucose + 10% FBS, 1.71 µM
[20] = RPMI 5 mM glucose + 10% FBS, 5.12 µM
[21] = RPMI 5 mM glucose + 10% FBS, 15.4 µM
[22] = RPMI 5 mM glucose + 10% FBS, 46.1 µM
[23] = RPMI 5 mM glucose + 10% dialyzed FBS, 0.000781 µM
[24] = RPMI 5 mM glucose + 10% dialyzed FBS, 0.00234 µM
[25] = RPMI 5 mM glucose + 10% dialyzed FBS, 0.00702 µM
[26] = RPMI 5 mM glucose + 10% dialyzed FBS, 0.0211 µM
[27] = RPMI 5 mM glucose + 10% dialyzed FBS, 0.0632 µM
[28] = RPMI 5 mM glucose + 10% dialyzed FBS, 0.19 µM
[29] = RPMI 5 mM glucose + 10% dialyzed FBS, 0.569 µM
[30] = RPMI 5 mM glucose + 10% dialyzed FBS, 1.71 µM
[31] = RPMI 5 mM glucose + 10% dialyzed FBS, 5.12 µM
[32] = RPMI 5 mM glucose + 10% dialyzed FBS, 15.4 µM
[33] = RPMI 5 mM glucose + 10% dialyzed FBS, 46.1 µM

Compound | cell viability [1] | cell viability [2] | cell viability [3] | cell viability [4] | cell viability [5] | cell viability [6] | cell viability [7] | cell viability [8] | cell viability [9] | cell viability [10] | cell viability [11] | cell viability [12] | cell viability [13] | cell viability [14] | cell viability [15] | cell viability [16] | cell viability [17] | cell viability [18] | cell viability [19] | cell viability [20] | cell viability [21] | cell viability [22] | cell viability [23] | cell viability [24] | cell viability [25] | cell viability [26] | cell viability [27] | cell viability [28] | cell viability [29] | cell viability [30] | cell viability [31] | cell viability [32] | cell viability [33]
O=C(O)CCc1ccc(NCc2cccc(Oc3ccccc3)c2)cc1 | 62.4% | 93.7% | 114% | 103% | 112% | 108% | 98.7% | 122% | 121% | 109% | 123% | 74.2% | 106% | 108% | 90.6% | 124% | 105% | 99.3% | 118% | 110% | 120% | 95.2% | 71.6% | 106% | 126% | 116% | 109% | 112% | 121% | 115% | 127% | 131% | 128%
COc1cc([C@@H]2c3cc4c(cc3[C@@H](O)C3COC(=O)C32)OCO4)cc(OC)c1O (stereo partly specified) | 73.2% | 86.7% | 86% | 21.1% | 84.4% | 46.9% | 22.2% | 24.3% | 16.6% | 11.3% | 9.58% | 96.4% | 83.3% | 101% | 13.1% | 104% | 47.6% | 19.7% | 14.7% | 9.69% | 4.01% | 4.26% | 78.6% | 70.2% | 98.2% | 16.1% | 82.9% | 52.8% | 19% | 19.5% | 11.8% | 7.08% | 4.88%
O=P1(NCCCl)OCCCN1CCCl (stereo unspecified) | 88.9% | 85.6% | 92.8% | 101% | 76.1% | 81.2% | 78% | 84.7% | 81.3% | 63% | 12.5% | 92.6% | 99.5% | 101% | 103% | 96.8% | 94.4% | 97.1% | 94.2% | 105% | 57.3% | 7.96% | 87.6% | 86% | 94.8% | 81.9% | 65.5% | 69.1% | 60.6% | 69.5% | 66.4% | 45% | 10.8%
COC1=CC=CC(=C1/C2=N/CC3=C(N=C(NC4=CC(=C(C=C4)C(O)=O)OC)N=C3)C5=CC=C(Cl)C=C25)F | 83.2% | 75.2% | 93.3% | 79.7% | 65.7% | 26% | 25.3% | 33.1% | 28.9% | 25.8% | 23.4% | 91.7% | 84.3% | 85.4% | 85.4% | 68.7% | 16.6% | 18.1% | 16.5% | 18.9% | 14% | 16.4% | 75.5% | 80.7% | 82.2% | 88.8% | 54% | 20.2% | 21.1% | 24% | 23.9% | 15.7% | 17.8%
O=C(c1ccc(C(=O)N2CCC(N3CCCC3)CC2)c(Nc2ccccc2)c1)N1CCC(N2CCCC2)CC1 | 119% | 111% | 115% | 94.8% | 116% | 113% | 107% | 107% | 103% | 98.7% | 96.4% | 112% | 106% | 109% | 104% | 105% | 115% | 117% | 102% | 89% | 102% | 103% | 80.7% | 91.2% | 102% | 104% | 98% | 102% | 104% | 112% | 101% | 88.5% | 82.6%
CCN(CC)CCNC(=O)c1ccc2nc(-c3ccccc3)c(-c3ccc(CN4CCC(n5c(=O)[nH]c6ccccc65)CC4)cc3)nc2c1 | 108% | 116% | 120% | 103% | 83.8% | 54% | 36.8% | 26.7% | 4.83% | 4.21% | 3.45% | 108% | 106% | 124% | 83.8% | 56.4% | 34.4% | 32.9% | 28.9% | 11% | 7.63% | 3.28% | 117% | 112% | 127% | 92.2% | 75.7% | 56.5% | 45.8% | 32.6% | 13.6% | 5.86% | 3.2%
CCN(CCO)CCCC(C)Nc1ccnc2cc(Cl)ccc12 (stereo unspecified) | 102% | 93.8% | 114% | 76.2% | 105% | 118% | 5.95% | 95% | 106% | 62.6% | 49.9% | 105% | 102% | 117% | 93% | 102% | 108% | 6.8% | 78.2% | 104% | 64.8% | 42.5% | 98.4% | 80.5% | 104% | 82.5% | 107% | 99.6% | 5.67% | 66% | 100% | 52.1% | 37.2%
